In US10703764B2, “Benzopiperazine compositions as BET bromodomain inhibitors” (FORMA Therapeutics, Inc., priority 2013, dated 2020):

Legend:
MV4-11 cells = test: Oncology cell growth assay (3-day proliferation, CellTiter-Glo); type: cell-based; details: Homo sapiens, MV4-11, 72 h, AML cell line MV4-11, 72 hours, compounds grouped by IC50 range, read-out: MV4-11 IC50 (inhibition of proliferation, gIC50)
How it was run: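 MV4-11 AML cells (RPMI 1640, 10% FBS) plated at 3000 cells/well and exposed 72 h to compound at final 10 to 0.0045 μM (3-fold series). Viability read by CellTiter-Glo luminescence; gIC50 from four-parameter logistic fit between DMSO control and no-cell background.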

BRD4 BD2 = target: T1, BRD4 BD2 (Homo sapiens, UniProt O60885); test: AlphaScreen binding assay, BRD4 Bromodomain 2
T1 construct: made in house
How it was run: (§1)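 An AlphaScreen competition format was used with His-BRD4 BD1 or BD2 and biotin-H4 K5/8/12/16-acetyl peptide, each at matched final levels of 50 nM (BD1) or 100 nM (BD2). Incubation in HEPES/NaCl buffer with 0.1% BSA and 0.01% Triton X-100 ran ≥1 h before IC50 determination.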

BRD4 BD1 = target: T2, BRD4 BD1 (Homo sapiens, UniProt O60885); test: AlphaScreen binding assay, BRD4 Bromodomain 1
T2 construct: made in house
How it was run: as §1

Compound | IC50 (MV4-11 cells) [nM] | IC50 (BRD4 BD2) [nM] | IC50 (BRD4 BD1) [nM]
CCCS(=O)(=O)c1ccc(-c2ccc3c(c2)N(C(=O)OC(C)C)C[C@H](C)N3C(C)=O)cc1 [Example I-1073] | 100 to 500 | 50 to 500 | 100 to 1000
CC(=O)N1c2ccc(-c3cnn(C4CC4)c3)cc2N(C(=O)Oc2cc(C)ccc2F)C[C@@H]1C [Example I-1198] | 100 to 500 | 50 to 500 | 100 to 1000
CC(=O)N1c2ccc(-c3cnn(C4CC4)c3)cc2N(C(=O)OC2CCC2)C[C@@H]1C [Example I-1003] | < 100 | 50 to 500 | < 100
CNS(=O)(=O)c1cccc(-c2ccc3c(c2)N(C(=O)OC(C)C)C[C@H](C)N3C(C)=O)c1 [Example I-1107] | 100 to 500 | 50 to 500 | 100 to 1000
CC(=O)N1c2ccc(-c3cnn(CCO)c3)cc2N(C(=O)Oc2cccnc2)C[C@@H]1C [Example I-1281] | 100 to 500 | 50 to 500 | 100 to 1000
CC(=O)N1c2ccc(-c3ccc(OCCS(C)(=O)=O)cc3)cc2N(C(=O)OC2CCOCC2)C[C@@H]1C [Example I-1252] | 100 to 500 | 50 to 500 | 100 to 1000
COC(=O)N1CCN(C(=O)c2ccc(-c3ccc4c(c3)N(C(=O)OC(C)C)C[C@H](C)N4C(C)=O)cc2)CC1 [Example I-546] | 100 to 500 | 50 to 500 | 100 to 1000
CCS(=O)(=O)Nc1cccc(-c2ccc3c(c2)N(C(=O)c2ccco2)C[C@H](C)N3C(C)=O)c1 [Example I-876] | 100 to 500 | < 50 | 100 to 1000
CC(=O)N1c2ccc(-c3cnn(C4CCOCC4)c3)cc2N(C(=O)OC2CCOCC2)C[C@@H]1C [Example I-38, (S)-tetrahydro-2H-pyran-4-yl 4-acetyl-3-methyl-7-(1-(tetrahydro-2H-pyran-4-yl)-1H-pyrazol-4-yl)-3,4-dihydroquinoxaline-1(2H)-carboxylate] | 100 to 500 | 50 to 500 | 100 to 1000
CCOC(=O)N1C[C@H](C)N(C(C)=O)c2ccc(-c3cnn(C4COC4)c3)cc21 [Example I-9, (S)-ethyl 4-acetyl-3-methyl-7-(1-(oxetan-3-yl)-1H-pyrazol-4-yl)-3,4-dihydro-quinoxaline-1(2H)-carboxylate] | 100 to 500 | 50 to 500 | 100 to 1000
CC(=O)N1c2ccc(-c3cnn(C4CC4)c3)cc2N(C(=O)Oc2ccc(Cl)c3cccnc23)C[C@@H]1C [Example I-1196] | 100 to 500 | 50 to 500 | 100 to 1000
CCS(=O)(=O)c1ccc(-c2ccc3c(c2)N(C(=O)C2CC2)C[C@H](C)N3C(C)=O)cc1 [Example I-1027] | 100 to 500 | 50 to 500 | 1000 to 10000
CC(=O)N1c2ccc(-c3cnn(C4CC4)c3)cc2N(c2nn(C)c3ccccc23)C[C@@H]1C [Example I-52, (S)-1-(6-(1-cyclopropyl-1H-pyrazol-4-yl)-2-methyl-4-(1-methyl-1H-indazol-3-yl)-3,4-dihydroquinoxalin-1(2H)-yl)ethanone] | < 100 | < 50 | 100 to 1000
COC(=O)N1c2ccc(-c3cnn(C[C@H]4CCNC4)c3)cc2N(C(=O)OC(C)C)C[C@@H]1C [Example I-692] | > 500 | 50 to 500 | 100 to 1000
CC(=O)N1c2ccc(-c3cccc4c3OCO4)cc2N(C(=O)c2ccco2)C[C@@H]1C [Example I-849] | > 500 | 50 to 500 | 100 to 1000
COC(=O)N1c2ccc(-c3ccc(C(=O)N4CCN(S(C)(=O)=O)CC4)cc3)cc2N(C(=O)OC(C)C)C[C@@H]1C [Example I-573] | 100 to 500 | 50 to 500 | 100 to 1000
CCOC(=O)N1C[C@H](C)N(C(C)=O)c2ccc(-c3ccc(S(C)(=O)=O)c(F)c3)cc21 [Example I-1084] | > 500 | 50 to 500 | 1000 to 10000
CC(=O)N1c2ccc(-c3cccc(N4CCCCC4)c3)cc2N(C(=O)c2ccco2)C[C@@H]1C [Example I-867] | > 500 | 50 to 500 | 1000 to 10000

Compound | IC50 (MV4-11 cells) [nM] | IC50 (BRD4 BD2) [nM] | IC50 (BRD4 BD1) [nM]
CC(=O)N1c2ccc(-c3cnn(CC4CCC4)c3)cc2N(C(=O)OC(C)C)C[C@@H]1C [Example I-603] | 100 to 500 | 50 to 500 | 100 to 1000
CC(=O)N1c2ccc(-c3ccc(S(=O)(=O)n4cccn4)cc3)cc2N(C(=O)OC2CCOCC2)C[C@@H]1C [Example I-1260] | > 500 | 50 to 500 | 100 to 1000
CNS(=O)(=O)c1cccc(-c2ccc3c(c2)N(C(=O)C2CC2)C[C@H](C)N3C(C)=O)c1 [Example I-1104] | 100 to 500 | 50 to 500 | 1000 to 10000
COC(=O)N1c2ccc(-c3cnn(Cc4c[nH]cn4)c3)cc2N(C(=O)OC(C)C)CC1C (stereo not drawn) [Example I-631] | > 500 | 50 to 500 | 100 to 1000
CC(=O)N[C@@H]1CCN(C(=O)c2ccc(-c3ccc4c(c3)N(C(=O)OC(C)C)C[C@H](C)N4C(=O)C3CC3)cc2)C1 [Example I-568] | 100 to 500 | 50 to 500 | 100 to 1000
CC(=O)N1c2ccc(-c3ccc(C(=O)N4CCCN(C)CC4)cc3)cc2N(C(=O)OC(C)C)C[C@@H]1C [Example I-553] | < 100 | 50 to 500 | 100 to 1000
CC(=O)N1c2ccc(-c3ccc(C(=O)N(C)CCN4CCCC4)cc3)cc2N(C(=O)OC(C)C)C[C@@H]1C [Example I-551] | 100 to 500 | 50 to 500 | 100 to 1000
CC(=O)N1c2ccc(-c3ccc(S(=O)(=O)N4CCN(C)CC4)cc3)cc2N(C(=O)c2ccco2)C[C@@H]1C [Example I-278] | 100 to 500 | < 50 | 1000 to 10000
COc1ccc(-c2ccc3c(c2)N(C(=O)c2ccco2)C[C@H](C)N3C(C)=O)cc1 [Example I-807] | 100 to 500 | < 50 | 100 to 1000
CC(=O)N1c2ccc(-c3ccnc(N4CCOCC4)c3)cc2N(C(=O)c2ccco2)C[C@@H]1C [Example I-862] | > 500 | 50 to 500 | 100 to 1000
CC(=O)N1c2ccc(-c3ccc(S(C)(=O)=O)c(F)c3)cc2N(C(=O)OC2CCCCC2)C[C@@H]1C [Example I-1241] | 100 to 500 | 50 to 500 | 100 to 1000
CC(=O)N1c2cc(N)c(-c3ccc(S(C)(=O)=O)cc3)cc2N(C(=O)OC(C)C)C[C@@H]1C [Example I-216, Isopropyl (S)-4-acetyl-6-amino-3-methyl-7-(4-(methylsulfonyl)phenyl)-3,4-dihydroquinoxaline-1 (2H)-carboxylate] | > 500 | > 500 | 1000 to 10000
CC(=O)N1c2ccc(-c3cccc(S(=O)(=O)NCCO)c3)cc2N(C(=O)C2CC2)C[C@@H]1C [Example I-1108] | 100 to 500 | 50 to 500 | 1000 to 10000
CC(=O)N1c2ccc(-c3ccc(S(=O)(=O)NCCO)cc3)cc2N(C(=O)C2CCC2)C[C@@H]1C [Example I-1036] | 100 to 500 | 50 to 500 | 1000 to 10000
CCOC(=O)N1C[C@H](C)N(C(C)=O)c2ccc(-c3ccc(S(=O)(=O)C(C)C)cc3)cc21 [Example I-1064] | > 500 | 50 to 500 | 1000 to 10000
CC(=O)N1c2ccc(-c3cnn(C4CC4)c3)cc2N(c2nn(C)c3ccc(F)cc23)C[C@@H]1C [Example I-55, (S)-1-(6-(1-cyclopropyl-1H-pyrazol-4-yl)-4-(5-fluoro-1-methyl-1H-indazol-3-yl)-2-methyl-3,4-dihydroquinoxalin-1(2H)-yl)ethanone] | 100 to 500 | < 50 | 100 to 1000
COC(=O)N1c2ccc(-c3ccc(C(=O)N4CCNCC4)cc3)cc2N(C(=O)C2CC2)C[C@@H]1C [Example I-456] | 100 to 500 | 50 to 500 | 100 to 1000
CC(=O)N1c2ccc(-c3ccc(S(=O)(=O)N(C)C)cc3)cc2N(C(=O)OC2CCOCC2)C[C@@H]1C [Example I-1264] | 100 to 500 | 50 to 500 | 100 to 1000
